Results: ChEMBL document CHEMBL1909046, “DrugMatrix in vitro pharmacology data”

Experiments:
Cathepsin G = target: T1, Cathepsin G (Homo sapiens, UniProt P08311); assay type: tissue-based; details: neutrophil;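 note: inhibition of Cathepsin G enzyme activity, tested on an AMC-conjugated peptide substrate; in other assays of this panel Not Active means under 50% inhibition at 10 µM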
T1 sequence (P08311 whole entry): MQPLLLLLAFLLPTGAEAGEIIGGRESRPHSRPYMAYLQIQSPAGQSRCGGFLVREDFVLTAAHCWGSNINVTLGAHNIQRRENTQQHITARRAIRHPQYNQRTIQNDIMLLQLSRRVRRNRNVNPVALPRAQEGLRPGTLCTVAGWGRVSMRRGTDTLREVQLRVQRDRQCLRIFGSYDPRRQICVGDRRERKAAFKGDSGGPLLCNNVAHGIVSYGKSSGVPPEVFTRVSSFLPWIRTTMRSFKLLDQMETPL

[1] = DRUGMATRIX: Potassium Channel [KATP] radioligand binding (ligand: [3H] Glyburide); assay type: cell membranes, Membrane; details: hit-t15; Not Active = under 50% inhibition at 10 µM
Cytochrome P450 2E1 = Cytochrome P450 2E1 (Homo sapiens, UniProt P05181); details: bti-tn-5b1-4; note: in other assays of this panel Not Active means under 50% inhibition at 10 µM
Cytochrome P450 2A6 = target: T2, Cytochrome P450 2A6 (Homo sapiens, UniProt P11509); details: bti-tn-5b1-4; note: in other assays of this panel Not Active means under 50% inhibition at 10 µM
T2 sequence (P11509 whole entry): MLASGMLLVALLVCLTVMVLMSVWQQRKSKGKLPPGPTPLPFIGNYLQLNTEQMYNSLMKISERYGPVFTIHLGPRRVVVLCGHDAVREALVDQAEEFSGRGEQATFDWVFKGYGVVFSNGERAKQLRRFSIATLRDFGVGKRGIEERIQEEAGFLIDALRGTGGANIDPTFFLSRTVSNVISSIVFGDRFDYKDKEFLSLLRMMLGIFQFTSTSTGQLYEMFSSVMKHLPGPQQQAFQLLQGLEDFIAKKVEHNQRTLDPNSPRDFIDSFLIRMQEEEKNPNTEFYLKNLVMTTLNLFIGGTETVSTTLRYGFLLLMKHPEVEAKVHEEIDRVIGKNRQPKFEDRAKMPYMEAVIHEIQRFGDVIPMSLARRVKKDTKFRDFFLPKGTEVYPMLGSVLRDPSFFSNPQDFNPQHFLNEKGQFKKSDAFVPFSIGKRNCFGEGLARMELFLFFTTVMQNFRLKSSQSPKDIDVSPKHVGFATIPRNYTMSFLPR

[2] = target: T3, Muscarinic acetylcholine receptor M2 (Homo sapiens, UniProt P08172); assay type: cell membranes, CHO-K1, Membrane; details: cho-k1; note: in other assays of this panel Not Active means under 50% inhibition at 10 µM
T3 sequence (P08172 whole entry): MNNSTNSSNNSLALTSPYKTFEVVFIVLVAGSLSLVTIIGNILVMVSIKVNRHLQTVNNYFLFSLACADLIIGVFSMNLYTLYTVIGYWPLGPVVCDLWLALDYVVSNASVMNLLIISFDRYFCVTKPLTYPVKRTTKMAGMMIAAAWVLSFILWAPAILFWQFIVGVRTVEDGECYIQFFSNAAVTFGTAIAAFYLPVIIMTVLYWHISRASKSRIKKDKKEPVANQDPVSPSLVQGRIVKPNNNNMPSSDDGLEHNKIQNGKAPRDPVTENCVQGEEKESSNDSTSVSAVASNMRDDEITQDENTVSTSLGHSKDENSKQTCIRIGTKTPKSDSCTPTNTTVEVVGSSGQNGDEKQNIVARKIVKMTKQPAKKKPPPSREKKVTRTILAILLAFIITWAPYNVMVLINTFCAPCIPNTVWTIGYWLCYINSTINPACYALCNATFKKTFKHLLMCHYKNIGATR

[3] = target: T4, Muscarinic acetylcholine receptor M4 (Homo sapiens, UniProt P08173); assay type: cell membranes, CHO-K1, Membrane; details: cho-k1; note: in other assays of this panel Not Active means under 50% inhibition at 10 µM
T4 sequence (P08173 whole entry): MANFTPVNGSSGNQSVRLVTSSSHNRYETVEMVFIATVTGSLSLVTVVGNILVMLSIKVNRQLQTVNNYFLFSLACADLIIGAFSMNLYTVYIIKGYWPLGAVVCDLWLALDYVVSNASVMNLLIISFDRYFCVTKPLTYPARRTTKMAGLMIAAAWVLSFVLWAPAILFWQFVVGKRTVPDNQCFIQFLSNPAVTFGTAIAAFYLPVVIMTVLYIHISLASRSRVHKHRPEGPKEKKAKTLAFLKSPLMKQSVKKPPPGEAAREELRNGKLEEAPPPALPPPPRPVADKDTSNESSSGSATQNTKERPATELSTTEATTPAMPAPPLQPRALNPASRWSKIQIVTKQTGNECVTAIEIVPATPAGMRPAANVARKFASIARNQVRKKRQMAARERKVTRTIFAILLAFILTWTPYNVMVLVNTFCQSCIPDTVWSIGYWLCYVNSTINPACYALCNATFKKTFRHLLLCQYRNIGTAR

[4] = DRUGMATRIX: Interleukin IL-1 radioligand binding (ligand: [125I] interleukin 1beta); assay type: cell membranes, Membrane; details: nih3t3; Not Active = under 50% inhibition at 10 µM

Cytochrome P450 2E1, sequence (P05181 whole entry): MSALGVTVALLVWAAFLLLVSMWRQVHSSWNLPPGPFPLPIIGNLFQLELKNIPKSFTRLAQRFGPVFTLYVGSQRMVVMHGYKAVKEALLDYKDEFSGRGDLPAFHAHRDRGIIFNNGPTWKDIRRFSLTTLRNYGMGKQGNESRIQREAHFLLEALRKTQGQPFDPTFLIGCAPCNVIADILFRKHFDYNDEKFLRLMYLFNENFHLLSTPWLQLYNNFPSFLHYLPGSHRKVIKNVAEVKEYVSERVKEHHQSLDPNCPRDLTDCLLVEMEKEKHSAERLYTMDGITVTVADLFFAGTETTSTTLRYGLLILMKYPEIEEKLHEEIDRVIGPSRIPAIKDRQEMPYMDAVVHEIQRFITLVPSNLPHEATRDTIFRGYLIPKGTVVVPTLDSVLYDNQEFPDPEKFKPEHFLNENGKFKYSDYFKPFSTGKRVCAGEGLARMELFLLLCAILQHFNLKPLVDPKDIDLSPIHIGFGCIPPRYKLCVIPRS

CS(=O)(=O)OCCCCOS(C)(=O)=O [BUSULFAN]
Not Active: IC50 (Cathepsin G) | IC50 [1] | Ki [1] | IC50 (Cytochrome P450 2E1) | Ki (Cytochrome P450 2E1) | IC50 (Cytochrome P450 2A6) | Ki (Cytochrome P450 2A6) | IC50 [2] | IC50 [3] | IC50 [4] | Ki [4]

O=C(/C=C/c1ccc(O)c(O)c1)OCCc1ccccc1 [CAFFEIC ACID PHENETHYL ESTER]
Not Active: IC50 (Cathepsin G) | IC50 [1] | Ki [1] | IC50 (Cytochrome P450 2E1) | Ki (Cytochrome P450 2E1) | IC50 (Cytochrome P450 2A6) | Ki (Cytochrome P450 2A6) | IC50 [2] | IC50 [3] | IC50 [4] | Ki [4]

COc1cc(CNC(=O)CCCC/C=C/C(C)C)ccc1O [CAPSAICIN]
Not Active: IC50 (Cathepsin G) | IC50 [1] | Ki [1] | IC50 (Cytochrome P450 2E1) | Ki (Cytochrome P450 2E1) | IC50 (Cytochrome P450 2A6) | Ki (Cytochrome P450 2A6) | IC50 [2] | IC50 [3] | IC50 [4] | Ki [4]

NC(=O)N1c2ccccc2C=Cc2ccccc21 [CARBAMAZEPINE]
Not Active: IC50 (Cathepsin G) | IC50 [1] | Ki [1] | IC50 (Cytochrome P450 2E1) | Ki (Cytochrome P450 2E1) | IC50 (Cytochrome P450 2A6) | Ki (Cytochrome P450 2A6) | IC50 [2] | IC50 [3] | IC50 [4] | Ki [4]

CCOC(=O)n1ccn(C)c1=S [CARBIMAZOLE]
Not Active: IC50 (Cathepsin G) | IC50 [1] | Ki [1] | IC50 (Cytochrome P450 2E1) | Ki (Cytochrome P450 2E1) | IC50 (Cytochrome P450 2A6) | Ki (Cytochrome P450 2A6) | IC50 [2] | IC50 [3] | IC50 [4] | Ki [4]

Oc1ccccc1O [CATECHOL]
Not Active: IC50 (Cathepsin G) | IC50 [1] | Ki [1] | IC50 (Cytochrome P450 2E1) | Ki (Cytochrome P450 2E1) | IC50 (Cytochrome P450 2A6) | Ki (Cytochrome P450 2A6) | IC50 [2] | IC50 [3] | IC50 [4] | Ki [4]

CO[C@@]1(NC(=O)CSCC#N)C(=O)N2C(C(=O)O)=C(CSc3nnnn3C)CS[C@@H]21 [CEFMETAZOLE]
Not Active: IC50 (Cathepsin G) | IC50 [1] | Ki [1] | IC50 (Cytochrome P450 2E1) | Ki (Cytochrome P450 2E1) | IC50 (Cytochrome P450 2A6) | Ki (Cytochrome P450 2A6) | IC50 [2] | IC50 [3] | IC50 [4] | Ki [4]

CN(C(=O)CCCOc1ccc2[nH]c(=O)ccc2c1)C1CCCCC1 [CILOSTAMIDE]
Not Active: IC50 (Cathepsin G) | IC50 [1] | Ki [1] | IC50 (Cytochrome P450 2E1) | Ki (Cytochrome P450 2E1) | IC50 (Cytochrome P450 2A6) | Ki (Cytochrome P450 2A6) | IC50 [2] | IC50 [3] | IC50 [4] | Ki [4]

CC(C)(Oc1ccc(C2CC2(Cl)Cl)cc1)C(=O)O (stereo not drawn) [CIPROFIBRATE]
Not Active: IC50 (Cathepsin G) | IC50 [1] | Ki [1] | IC50 (Cytochrome P450 2E1) | Ki (Cytochrome P450 2E1) | IC50 (Cytochrome P450 2A6) | Ki (Cytochrome P450 2A6) | IC50 [2] | IC50 [3] | IC50 [4] | Ki [4]

Nc1nc(Cl)nc2c1ncn2[C@H]1C[C@H](O)[C@@H](CO)O1 [CLADRIBINE]
Not Active: IC50 (Cathepsin G) | IC50 [1] | Ki [1] | IC50 (Cytochrome P450 2E1) | Ki (Cytochrome P450 2E1) | IC50 (Cytochrome P450 2A6) | Ki (Cytochrome P450 2A6) | IC50 [2] | IC50 [3] | IC50 [4] | Ki [4]

CC[C@H]1OC(=O)[C@H](C)[C@@H](O[C@H]2C[C@@](C)(OC)[C@@H](O)[C@H](C)O2)[C@H](C)[C@@H](O[C@@H]2O[C@H](C)C[C@H](N(C)C)[C@H]2O)[C@](C)(OC)C[C@@H](C)C(=O)[C@H](C)[C@@H](O)[C@]1(C)O [CLARITHROMYCIN]
Not Active: IC50 (Cathepsin G) | IC50 [1] | Ki [1] | IC50 (Cytochrome P450 2E1) | Ki (Cytochrome P450 2E1) | IC50 (Cytochrome P450 2A6) | Ki (Cytochrome P450 2A6) | IC50 [2] | IC50 [3] | IC50 [4] | Ki [4]

O=C(O)c1cc(=O)c2c(OCC(O)COc3cccc4oc(C(=O)O)cc(=O)c34)cccc2o1 [CROMOLYN]
Not Active: IC50 (Cathepsin G) | IC50 [1] | Ki [1] | IC50 (Cytochrome P450 2E1) | Ki (Cytochrome P450 2E1) | IC50 (Cytochrome P450 2A6) | Ki (Cytochrome P450 2A6) | IC50 [2] | IC50 [3] | IC50 [4] | Ki [4]

O=P1(N(CCCl)CCCl)NCCCO1 (stereo not drawn) [CYCLOPHOSPHAMIDE ANHYDROUS]
Not Active: IC50 (Cathepsin G) | IC50 [1] | Ki [1] | IC50 (Cytochrome P450 2E1) | Ki (Cytochrome P450 2E1) | IC50 (Cytochrome P450 2A6) | Ki (Cytochrome P450 2A6) | IC50 [2] | IC50 [3] | IC50 [4] | Ki [4]
